Data published in PMC12114839 (2025).

Tested on: c-MYC G4 DNA (Pu27) (DNA, G4) TGAGGGTGGGTAGGGTGGGTAA
Assay: UV-Vis absorbance titration
Details: 100 mM K+ (KCl); 10 mM Tris-HCl pH 7.4, 1 mM EDTA, 25 °C; 5 µM DNA, 0-20 µM EGCG; no Kd determined

With `O=C(O[C@@H]1Cc2c(O)cc(O)cc2O[C@@H]1c1cc(O)c(O)c(O)c1)c1cc(O)c(O)c(O)c1` as the compound, how does the binding read?
Its binding is “yes”.
